In PMC10733197, “Utilization of Rosuvastatin and Endogenous Biomarkers in Evaluating the Impact of Ritlecitinib on BCRP, OATP1B1, and OAT3 Transporter Activity” (Pharmaceutical Research, 2023):
Like-named read-outs stand apart in the source and are kept apart here.

How the values were obtained:
[1] = clinical; conditions: human, in vivo, 10 mg
Procedure: Blood and urine samples were collected at prespecified timepoints. […] Each participant emptied their bladder just prior to dosing. Plasma rosuvastatin was measured using a validated UPLC-MS/MS assay, in compliance with Pfizer standard operating procedures. Samples were thawed at room temperature and vortexed. […] Samples were then placed in a methanol/ dry ice bath for 5 min. […] Dry residues were reconstituted with 200 μL of reconstitution solution (mobile phase A). After vortexing, all tubes were centrifuged at 3000 rpm for 5 min at 4 °C, and 150 μL of the reconstituted samples were transferred into the deep round well microplates and sealed by aluminum foil at 165 °C. […] Mobile phase A was Milli-Q Type Water/methanol, ammonium acetate 2 mM and mobile phase B was acetonitrile. The monitored ion transitions were m/z 483.3 → 258.2; […] The validated rosuvastatin concentration calibration range was 20 to 25000 pg/mL. Urine rosuvastatin was measured using a validated HPLC-MS/MS assay, in compliance with Pfizer standard operating procedures. […] Mobile phase A was Milli-Q® type water/methanol, ammonium acetate 2 mM and mobile phase B was acetonitrile. The monitored ion transitions were m/z 483.3 → 258.2; […] The validated rosuvastatin concentration calibration range was 5 to 2000 ng/mL. […] Samples below the lower limit of quantitation were set to zero for the PK analysis. Actual sample collection times were used for the PK analysis. Natural log transformed area under the plasma concentration-time profile from time 0 extrapolated to infinity (AUCinf), maximum plasma concentration (Cmax), and apparent renal clearance (CLr) were analyzed using a mixed effect model with treatment as a fixed effect and participant as a random effect (SAS version 9.4; SAS Institute, Cary, NC, USA). […] Rosuvastatin alone was the reference treatment, while the rosuvastatin coadministered with ritlecitinib was the Test treatment.

[2] = test system: OATP2B1; set-up: method as in PMID 27737931; conditions: rosuvastatin coadministered with ronacaleret, an OATP2B1 inhibitor; cited from earlier work
[3] = set-up: method as in PMID 14693307; conditions: cited from earlier work
[4] = Safety and tolerability in the clinical DDI study
Procedure: This was a Phase 1, 2-period fixed-sequence, multiple-dose, open-label study of the effect of ritlecitinib on the pharmacokinetics and renal clearance of a single, oral dose of rosuvastatin in healthy participants (Fig. 1). The safety and tolerability of rosuvastatin when coadministered with ritlecitinib was also evaluated.
In Period 1 on Day 1, following an overnight fast of at least 10 h, participants received a single oral administration of rosuvastatin 10 mg tablet. Period 1 was immediately followed by Period 2 with no washout. In Period 2 (coadministration), participants received oral ritlecitinib 200 mg once daily (QD) under non-fasting conditions for 7 days. On the morning of Day 8, a single dose of rosuvastatin 10 mg tablet was administered orally within approximately 5 min after administration of a ritlecitinib 200 mg dose under fasting conditions. On Days 9 and 10, participants continued to receive oral ritlecitinib 200 mg QD under non-fasting conditions.

[5] = target: T1, OAT3 (Homo sapiens, UniProt Q8TCC7); conditions: estrone 3-sulfate 0.1 µM; HEK293; existing in vitro data; cited from earlier work
T1 construct: expressed in transfected cells; host or cells: HEK293
T1 sequence (Q8TCC7 1-542): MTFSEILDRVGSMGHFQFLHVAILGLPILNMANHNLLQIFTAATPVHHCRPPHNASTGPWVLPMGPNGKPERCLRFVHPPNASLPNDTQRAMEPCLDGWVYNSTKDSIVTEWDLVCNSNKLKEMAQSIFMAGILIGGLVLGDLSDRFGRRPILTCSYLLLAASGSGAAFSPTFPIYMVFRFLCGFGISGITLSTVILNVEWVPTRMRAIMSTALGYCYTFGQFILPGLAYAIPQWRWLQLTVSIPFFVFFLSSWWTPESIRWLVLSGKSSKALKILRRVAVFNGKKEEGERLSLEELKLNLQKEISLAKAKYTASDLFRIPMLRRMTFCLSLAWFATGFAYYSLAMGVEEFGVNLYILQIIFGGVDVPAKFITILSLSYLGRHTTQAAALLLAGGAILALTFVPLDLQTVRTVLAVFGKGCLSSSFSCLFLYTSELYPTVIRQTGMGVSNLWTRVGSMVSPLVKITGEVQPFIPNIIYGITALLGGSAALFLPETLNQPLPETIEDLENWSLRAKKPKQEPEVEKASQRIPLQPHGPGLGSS

[6] = cited from earlier work
[7] = test system: OAT1/3; conditions: ref 1 (Rodrigues AD 2023), cited from earlier work
[8] = target: T2, OAT1 (Homo sapiens, UniProt Q4U2R8); conditions: cited from earlier work
T2 sequence (Q4U2R8 1-563): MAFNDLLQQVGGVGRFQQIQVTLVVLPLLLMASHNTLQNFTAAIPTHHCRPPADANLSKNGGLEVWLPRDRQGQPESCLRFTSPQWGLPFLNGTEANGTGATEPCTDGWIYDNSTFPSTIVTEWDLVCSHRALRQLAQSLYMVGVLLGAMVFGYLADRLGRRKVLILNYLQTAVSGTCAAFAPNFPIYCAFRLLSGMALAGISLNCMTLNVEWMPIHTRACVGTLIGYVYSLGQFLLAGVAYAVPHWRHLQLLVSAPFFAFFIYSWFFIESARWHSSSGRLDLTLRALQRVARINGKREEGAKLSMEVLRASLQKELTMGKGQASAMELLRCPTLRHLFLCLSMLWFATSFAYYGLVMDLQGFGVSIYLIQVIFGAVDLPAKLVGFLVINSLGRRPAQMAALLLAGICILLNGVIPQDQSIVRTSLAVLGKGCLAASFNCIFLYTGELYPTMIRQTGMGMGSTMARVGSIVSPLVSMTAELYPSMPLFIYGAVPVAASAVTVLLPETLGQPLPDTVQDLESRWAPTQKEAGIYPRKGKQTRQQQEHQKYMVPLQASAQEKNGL

[9] = rosuvastatin 10 mg single dose (without ritlecitinib) or ritlecitinib 200 mg QD, 12 healthy participants

With `CC(C)c1nc(N(C)S(C)(=O)=O)nc(-c2ccc(F)cc2)c1/C=C/[C@@H](O)C[C@@H](O)CC(=O)O` [Rosuvastatin, rosuvastatin] the AUC(0-inf) [1] was 43.9 ng·h/mL, the CL renal [1] was 218 mL/min and the CL/F [1] was 228.0 (44) L/hr. The Cmax [1] was 4.5 ng/mL, the Tmax [1] was 4.01 h and the Vd/F [1] was 6020 L. For the same compound, the half-life [1] was 1160 ± 421 min, the “decrease in AUCinf exposure” value [2] was about 50% and the excreted in urine [3] was at most 10%. For the same compound, the “TEAEs of moderate severity” value ([4]; back pain, single dose of rosuvastatin 10 mg) was 1, the “number of treatment-emergent adverse events (TEAEs)” value [4, 9] was 4 and the “participants with TEAEs” value [4, 9] was 4. The “TEAEs considered treatment-related by the investigator” value ([4]; rosuvastatin 10 mg single dose or ritlecitinib 200 mg QD) was “all of which were considered treatment-related”.

In the case of `CCc1nc(N)nc(N)c1-c1ccc(Cl)cc1` [Pyrimethamine], the IC50 [5] is listed as 16 µM, the “Cmax,u” value ([6]; inhibitor dose 10 mg) is listed as 0.04 µM and the “Cmax,u” value ([6]; inhibitor dose 25 mg) is listed as 0.11 µM. The “Cmax,u” value ([6]; inhibitor dose 75 mg) was 0.37 µM, the “PDA AUC ratio Observed” value ([7]; inhibitor dose 10 mg) was 0.7 and the “PDA AUC ratio Observed” value ([7]; inhibitor dose 25 mg) was 0.6. The “PDA AUC ratio Observed” value ([7]; inhibitor dose 75 mg) was 0.6 and the IC50 [8] was 224 µM.
